What all share (type): cell-based
One assay addresses T1, Sea lamprey VDR (Petromyzon marinus, UniProt Q7ZZY9).
T1 sequence (Q7ZZY9 92-406): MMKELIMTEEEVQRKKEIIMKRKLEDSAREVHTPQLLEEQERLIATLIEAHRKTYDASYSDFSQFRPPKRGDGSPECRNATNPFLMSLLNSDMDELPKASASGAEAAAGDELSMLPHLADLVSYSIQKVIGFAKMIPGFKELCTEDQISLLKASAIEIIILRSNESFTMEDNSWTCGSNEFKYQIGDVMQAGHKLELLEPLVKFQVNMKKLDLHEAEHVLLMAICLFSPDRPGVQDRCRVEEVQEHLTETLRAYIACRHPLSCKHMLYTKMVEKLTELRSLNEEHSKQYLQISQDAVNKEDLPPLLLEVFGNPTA

The next assay concerns the target T2, Xenopus laevis VDR (Xenopus laevis, UniProt O13124).
T2 sequence (O13124 90-422): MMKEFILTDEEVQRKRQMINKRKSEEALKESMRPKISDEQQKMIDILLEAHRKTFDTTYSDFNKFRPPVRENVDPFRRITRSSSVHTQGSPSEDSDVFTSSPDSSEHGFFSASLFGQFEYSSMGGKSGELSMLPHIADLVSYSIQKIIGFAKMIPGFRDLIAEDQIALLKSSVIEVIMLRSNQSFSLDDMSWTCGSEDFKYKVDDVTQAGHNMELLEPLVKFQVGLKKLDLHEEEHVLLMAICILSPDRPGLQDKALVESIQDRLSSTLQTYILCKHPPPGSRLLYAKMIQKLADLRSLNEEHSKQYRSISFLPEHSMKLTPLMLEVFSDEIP
Put plainly: luciferase reporter transactivation assay in HepG2-NTCP cells, GAL4/xlVDR LBD chimera with tk-UAS-Luc. The following applies: screening for activators, at least three concentrations of each drug. (In a reporter assay the amount or activity of a reporter protein is the signal.)

In the next assay the target is T3, Zebrafish VDR (Danio rerio, UniProt Q9PTN2).
T3 sequence (Q9PTN2 121-453): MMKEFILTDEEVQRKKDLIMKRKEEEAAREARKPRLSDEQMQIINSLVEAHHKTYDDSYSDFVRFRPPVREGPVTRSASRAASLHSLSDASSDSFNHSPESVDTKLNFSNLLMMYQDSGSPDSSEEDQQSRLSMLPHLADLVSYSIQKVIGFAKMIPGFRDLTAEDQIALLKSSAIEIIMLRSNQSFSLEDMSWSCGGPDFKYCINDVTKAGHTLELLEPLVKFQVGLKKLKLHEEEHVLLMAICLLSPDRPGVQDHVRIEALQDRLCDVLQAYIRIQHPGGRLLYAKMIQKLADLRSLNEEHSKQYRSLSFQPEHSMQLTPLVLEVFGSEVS
The assay is described as follows: luciferase reporter transactivation assay in HepG2-NTCP cells, GAL4/zfVDR LBD chimera with tk-UAS-Luc. The following applies: screening for activators, at least three concentrations of each drug.

[1] abbreviates: screening for activators, at least three concentrations of each drug.

Like-named read-outs stand apart in the source and are kept apart here.

Regarding 4-Pregnen-17,20b-diol-3-one sulfate, the “Effect on sea lamprey VDR” value on Sea lamprey VDR (setting [1]) was “No effect”. Also, at Xenopus laevis VDR, the “Effect on Xenopus laevis VDR” value is “No effect”. Moreover, the “Effect on zebrafish VDR” value on Zebrafish VDR is on record as “No effect”.

As to 17-Hydroxyprogesterone, on Sea lamprey VDR (setting [1]), the “Effect on sea lamprey VDR” value is given as “No effect”. Moreover, at Xenopus laevis VDR, the “Effect on Xenopus laevis VDR” value is recorded as “No effect”. Also, the “Effect on zebrafish VDR” value on Zebrafish VDR is listed as “No effect”.

As for `C[C@]12CC[C@@H]3c4cc(O)c(O)cc4CC[C@H]3[C@@H]1CCC2=O` [2-Hydroxyestrone], the “Effect on sea lamprey VDR” value at Sea lamprey VDR (setting [1]) is “No effect”. For the same compound, the “Effect on Xenopus laevis VDR” value on Xenopus laevis VDR is recorded as “No effect”. Also, the “Effect on zebrafish VDR” value at Zebrafish VDR is “No effect”.

`O=C(O)CCc1cc(I)c(O)c(I)c1` [3,5-Diiodo-4-hydroxyphenylpropionic acid]: the “Effect on sea lamprey VDR” value on Sea lamprey VDR (setting [1]) is given as “No effect”. For the same compound, the “Effect on Xenopus laevis VDR” value at Xenopus laevis VDR is reported as “No effect”. The “Effect on zebrafish VDR” value on Zebrafish VDR is “No effect”.

In the case of `N[C@@H](Cc1cc(I)c(O)c(I)c1)C(=O)O.O.O` [3,5-Diiodo-L-tyroside dihydrate], on Sea lamprey VDR (setting [1]), the “Effect on sea lamprey VDR” value was “No effect”. In addition, on Xenopus laevis VDR, the “Effect on Xenopus laevis VDR” value is “No effect”. Besides, the “Effect on zebrafish VDR” value on Zebrafish VDR was “No effect”.

For the compound `C[C@@]12C=CC[C@H]1[C@@H]1CCC3=CC(=O)CC[C@]3(C)[C@H]1CC2` [4,16-Androstadien-3-one], the “Effect on sea lamprey VDR” value on Sea lamprey VDR (setting [1]) is “No effect”. Moreover, on Xenopus laevis VDR, the “Effect on Xenopus laevis VDR” value is on record as “No effect”. In addition, the “Effect on zebrafish VDR” value on Zebrafish VDR is reported as “No effect”.

Take `CC1=C(/C=C/C(C)=C/C=C/C(C)=C/C(=O)O)C(C)(C)CCC1O` (stereo not shown) [4-Hydroxretinoic acid]: the “Effect on sea lamprey VDR” value at Sea lamprey VDR (setting [1]) was “No effect”. Further, the “Effect on Xenopus laevis VDR” value at Xenopus laevis VDR is recorded as “No effect”. Besides, on Zebrafish VDR, the “Effect on zebrafish VDR” value was “No effect”.

As to `CC1=C(/C=C/C(C)=C/C=C/C(C)=C/C(=O)Nc2ccc(O)cc2)C(C)(C)CCC1` [4-Hydroxyphenylretinamide], the “Effect on sea lamprey VDR” value on Sea lamprey VDR (setting [1]) is listed as “No effect”. For the same compound, the “Effect on Xenopus laevis VDR” value at Xenopus laevis VDR is “No effect”. The “Effect on zebrafish VDR” value on Zebrafish VDR is given as “No effect”.

Consider `C[C@]12CCC(=O)C=C1CC[C@@H]1[C@@H]2CC[C@]2(C)C(=O)CC[C@@H]12` [Androstenedione], for which the “Effect on sea lamprey VDR” value at Sea lamprey VDR (setting [1]) was “No effect”. In addition, the “Effect on zebrafish VDR” value at Zebrafish VDR is given as “No effect”.

As for `C[C@H](CCC(=O)O)[C@H]1CC[C@H]2[C@@H]3[C@H](O)C[C@@H]4C[C@H](O)CC[C@]4(C)[C@H]3C[C@H](O)[C@]12C` [Cholic acid], the “Effect on Xenopus laevis VDR” value on Xenopus laevis VDR is listed as “No effect”. On Zebrafish VDR, the “Effect on zebrafish VDR” value is given as “No effect”.

For the compound `C[C@]12CC[C@H]3[C@@H](CCC4=CC(=O)CC[C@@]43C)[C@@H]1CC[C@H]2O` [Epitestosterone], the “Effect on Xenopus laevis VDR” value at Xenopus laevis VDR is given as “No effect”. At Zebrafish VDR, the “Effect on zebrafish VDR” value is recorded as “No effect”.

With `C[C@]12CC[C@@H]3c4ccc(O)cc4CC[C@H]3[C@@H]1CCC2=O` [Estrone], at Sea lamprey VDR (setting [1]), the “Effect on sea lamprey VDR” value is recorded as “No effect”. For the same compound, on Zebrafish VDR, the “Effect on zebrafish VDR” value is “No effect”.

`COC(C)(C)CCCC(C)C/C=C/C(C)=C/C(=O)O` (stereo not shown) [Methoprene acid]: the “Effect on sea lamprey VDR” value on Sea lamprey VDR (setting [1]) is given as “No effect”. Also, the “Effect on zebrafish VDR” value on Zebrafish VDR is “No effect”.

In the case of `CC#C[C@]1(O)CC[C@H]2[C@@H]3CCC4=CC(=O)CCC4=C3[C@@H](c3ccc(N(C)C)cc3)C[C@@]21C` [Mifepristone], on Sea lamprey VDR, the “Effect on sea lamprey VDR” value is listed as “No effect”. Besides, at Xenopus laevis VDR, the “Effect on Xenopus laevis VDR” value is “No effect”.

As for `C[C@]12CC[C@H]3[C@@H](CCC4=CC(=O)CC[C@@]43C)[C@@H]1CC[C@@H]2O` [Testosterone], the “Effect on Xenopus laevis VDR” value is “No effect” on Xenopus laevis VDR and “None of these three VDRs were activated” on Xenopus laevis VDR (listed as testosterone). The “Effect on zebrafish VDR” value at Zebrafish VDR is “No effect”; at Zebrafish VDR (listed as testosterone), “None of these three VDRs were activated”.

For `CC1=C(/C=C/C(C)=C/C=C/C(C)=C/CO)C(C)(C)CCC1` [all-trans-Retinol], on Zebrafish VDR, the “Effect on zebrafish VDR” value was “No effect”.

As for S-Farnesyl-L-cysteine methyl ester, on Sea lamprey VDR (setting [1]), the “Effect on sea lamprey VDR” value was “No effect”. For the same compound, the “Effect on zebrafish VDR” value on Zebrafish VDR is “No effect”.

The record behind these values is paper PMC2263054, “Functional evolution of the vitamin D and pregnane X receptors” (BMC Evolutionary Biology, 2007).
